Reference: ChEMBL document CHEMBL1151208, “Cytotoxic flavonoids and alpha-pyrones from Cryptocarya obovata” (J Nat Prod, 2004)
pIC50: −log10 of the molar value. Activity calls are given as the source filed them. The rule behind the calls is not given here.

Tested on: KB
Assay: Cytotoxicity against human KB cells
Type: functional, cell-based

For `CCOC(=O)CCC[C@@H]1C[C@H]2C[C@](/C=C/c3ccccc3)(Oc3cc4c(c(O)c32)C(=O)C[C@@H](c2ccccc2)O4)O1`, which Activity is on record?
The Activity was “inactive”.

How did the Activity turn out when `CCOC(=O)CCC[C@@H]1C[C@H]2C[C@](/C=C/c3ccccc3)(Oc3cc4c(c(O)c32)C(=O)C[C@H](c2ccccc2)O4)O1` was run?
The Activity was “inactive”.

With `O=C1C=CC[C@H](C[C@@H]2C[C@H]3C[C@](/C=C/c4ccccc4)(Oc4c(C(=O)/C=C/c5ccccc5)c(O)cc(O)c43)O2)O1` [OBOCHALCOLACTONE] as the molecule, how does the pIC50 read?
The pIC50 was 5.30.

With `O=C1C=C(/C=C/c2ccccc2)O[C@H](C[C@H]2CC=CC(=O)O2)C1` [OBOLACTONE] as the molecule, how does the pIC50 read?
The pIC50 was 5.52.
